{"source": "patent US20130065959A1", "about": "“SANITIZING MEAT WITH PERACID AND 2-HYDROXY ORGANIC ACID COMPOSITIONS” (Fresh Express Incorporated, priority 2009, published 2013)", "key": {"[1]": {"conditions": "40° C.; cited from earlier work"}, "[2]": {"test_system": "indigenous microorganisms", "test": "Reduction of indigenous microorganisms on Romaine, Aerobic Plate Counts, commercial scale test (Example 5)", "type": "cell-based", "conditions": "73-84 ppm peroxyacetic acid, no lactic acid", "method": "(§1) Example 5. These experiments evaluated the consumption or depletion of peroxyacetic acid when used to wash produce.\n(§2) Treatments: chlorinated water, peroxyacetic acid wash water, and FE sanitizer wash water\n(§3) Temperature: 38 to 40° F.\n(§4) Produce: 1.5″×2″ diced Romaine lettuce\nA. Determination of the amount of Romaine Lettuce that could deplete 600 gallons of peroxyacetic acid wash water. • 1. Perform full sanitization on the Pilot Line System. • 2. Fill the 2nd flume tank, 2nd reservoir, and 2nd filtering tank with tap water. • 3. Recycle the water through the system until the water in the system is being cooled down to 40° F. • 4. Calibrate the Prominent System and use the Prominent System to monitor the concentration of PAA in the wash water. • 5. Add the PAA to the 2nd filtering tank until the target processing limit is reached. • 6. Dice the Romaine Lettuce via the translicer. • 7. Collect the 2″×2″ diced Romaine in totes. • 8. Record the weight of each tote prior to transferring it to the 2nd flume. • 9. Collect three untreated bags of Romaine Lettuce from each bin (1 top, 1 middle, and 1 bottom). • 10. Collect three treated bags of Romaine Lettuce at the end of F2 (1 beginning, 1 middle, and 1 end of the bin). • 11. Place white totes at the bottom of the locations with water spill. Return the spilt water back into the flume tank as needed. • 12. […]"}, "[3]": {"test": "Depletion of sanitizer wash water by diced Romaine, commercial scale test (Example 5)", "type": "physicochemical", "conditions": "38 to 40 F; for PA (ppm) / Peroxide (ppm): 600 gallons, LA 0 ppm", "method": "as §1, §2, §3, §4\nA. Determination of the amount of Romaine Lettuce that could deplete 600 gallons of peroxyacetic acid wash water. • 1. Perform full sanitization on the Pilot Line System. • 2. Fill the 2nd flume tank, 2nd reservoir, and 2nd filtering tank with tap water. • 3. Recycle the water through the system until the water in the system is being cooled down to 40° F. • 4. Calibrate the Prominent System and use the Prominent System to monitor the concentration of PAA in the wash water. • 5. Add the PAA to the 2nd filtering tank until the target processing limit is reached. • 6. Dice the Romaine Lettuce via the translicer. • 7. Collect the 2″×2″ diced Romaine in totes. • 8. Record the weight of each tote prior to transferring it to the 2nd flume. • 9. Collect three untreated bags of Romaine Lettuce from each bin (1 top, 1 middle, and 1 bottom). • 10. Collect three treated bags of Romaine Lettuce at the end of F2 (1 beginning, 1 middle, and 1 end of the bin). • 11. Place white totes at the bottom of the locations with water spill. Return the spilt water back into the flume tank as needed. • 12. Place white totes at the bottom outlets of the centrifuge to collect liquid that would be spin off from the leaves. Return the collected water back into the flume tank as needed. • 13. Repeat Steps ‘e’ to ‘k’ for the rest of the bins till the FE concentrations fall below the lowest processing limits. • 14. Enumerate the microbial population (APC and Yeast and mold) on the collected samples. B. Determination of the amount of Romaine Lettuce that could deplete 600 gallons of FE wash water • 1. Perform full sanitization on the Pilot Line System. • 2. Fill the 1st flume tank, 2nd flume tank, 1st reservoir, 2nd reservoir, 1^stfiltering tank, and 2nd filtering tank with tap water. • 3. Recycle the water through the system until the water in the system is being cooled down to 40° F. • 4. Switch on the by-passes for the 1st and 2nd flume tank systems so that water would not be going through the filtering systems but only recycling from the flume tank to its associate reservoir continuously. • 5. Add the chemical ingredients to both tank until the target processing limit is reached. • 6. Verify the concentration of FE by the probe of the Prominent Monitoring System at the 1st flume tank (F1), 1st Reservoir (R1), 2nd Flume tank (F2), and the 2nd Reservoir (R2). • 7. Collect water samples from F1 and F2. • 8. Assemble the Romaine Lettuce Bins next to the dumpster. • 9. Transfer whole Romaine Lettuce leaves from the bin to the conveyor. • 10. Ensure that the lid above the F1 is closed. Turn the “ON/OFF” switch of the translicer to “ON”. • 11. Turn the conveyor for transferring leaves into the translicer to “ON”. • 12. Ensure that the chopped Romaine are delivered evenly into the flume tank without aggregation and clumping. • 13. Collect three untreated bags of Romaine Lettuce from each bin (1 top, 1 middle, and 1 bottom). • 14. Collect three treated bags of Romaine Lettuce at the end of F2 (1 beginning, 1 middle, and 1 end of the bin). • 15. Verify the pH, temperature, and the concentration of FE at the 1st flume tank (F1), 1st Reservoir (R1), 2nd Flume tank (F2), and the 2nd Reservoir (R2) before and after processing a bin. • 16. Place white totes at the bottom of the locations with water spill. Return the spilt water back into the flume tank as needed. • 17. Place white totes at the bottom outlets of the centrifuge to collect liquid that would be spin off from the leaves. Return the collected water back into the flume tank as needed. • 18. Repeat Steps ‘e’ to ‘o’ for the rest of the bins till the FE concentrations fall below the lowest processing limits. • 19. […]"}, "[4]": {"conditions": "600 gallons wash water, whole run"}, "[5]": {"conditions": "cumulative diced Romaine added 0.0 lb"}, "[6]": {"conditions": "cumulative diced Romaine added 55.2 lb"}, "[7]": {"conditions": "cumulative diced Romaine added 114.9 lb"}, "[8]": {"conditions": "cumulative diced Romaine added 157.2 lb"}, "[9]": {"conditions": "cumulative diced Romaine added 207.7 lb"}, "[10]": {"conditions": "cumulative diced Romaine added 272.9 lb"}, "[11]": {"conditions": "cumulative diced Romaine added 325.8 lb"}, "[12]": {"conditions": "cumulative diced Romaine added 371.3 lb"}, "[13]": {"conditions": "cumulative diced Romaine added 424.7 lb"}, "[14]": {"conditions": "cumulative diced Romaine added 502.6 lb"}, "[15]": {"conditions": "cumulative diced Romaine added 565.0 lb"}, "[16]": {"conditions": "cumulative diced Romaine added 629.0 lb"}, "[17]": {"conditions": "cumulative diced Romaine added 697.1 lb"}, "[18]": {"conditions": "cumulative diced Romaine added 762.7 lb"}, "[19]": {"conditions": "cumulative diced Romaine added 826.6 lb"}, "[20]": {"conditions": "cumulative diced Romaine added 896.2 lb"}, "[21]": {"conditions": "cumulative diced Romaine added 949.9 lb"}}}
{"smiles": "CC(=O)OO", "note": "[Peroxyacetic acid, peroxyacetic acid]", "values": [{"measurement": "apparent equilibrium constant, Kap", "setting": "[1]", "result": "about 2.21"}, {"measurement": "Log Reduction, Aerobic Plate Counts", "setting": "[2]", "result": 0.7, "unit": "Log cfu/g"}, {"measurement": "Aerobic Plate Counts after wash", "setting": "[2]; untreated 3.4", "result": 2.7, "unit": "Log cfu/g"}, {"measurement": "Amount of PA consumed", "setting": "[3]; [4]", "result": 11.7, "unit": "ppm"}, {"measurement": "Pounds of PA consumed", "setting": "[3]; [4]", "result": 0.01208, "unit": "lb"}, {"measurement": "Depletion of PA", "setting": "[3]; 600 gallons wash water, no lactic acid", "result": "0.000013 lb of PA per lb of Romaine"}, {"measurement": "PA (ppm)", "setting": "[3]; [5]", "result": 84.8, "unit": "ppm"}, {"measurement": "Peroxide (ppm)", "setting": "[3]; [5]", "result": 7.5, "unit": "ppm"}, {"measurement": "PA (ppm)", "setting": "[3]; [6]", "result": 83.3, "unit": "ppm"}, {"measurement": "Peroxide (ppm)", "setting": "[3]; [6]", "result": 7.4, "unit": "ppm"}, {"measurement": "PA (ppm)", "setting": "[3]; [7]", "result": 82.7, "unit": "ppm"}, {"measurement": "Peroxide (ppm)", "setting": "[3]; [7]", "result": 7.4, "unit": "ppm"}, {"measurement": "PA (ppm)", "setting": "[3]; [8]", "result": 82.4, "unit": "ppm"}, {"measurement": "Peroxide (ppm)", "setting": "[3]; [8]", "result": 7.4, "unit": "ppm"}, {"measurement": "PA (ppm)", "setting": "[3]; [9]", "result": 82.0, "unit": "ppm"}, {"measurement": "Peroxide (ppm)", "setting": "[3]; [9]", "result": 7.4, "unit": "ppm"}, {"measurement": "PA (ppm)", "setting": "[3]; [10]", "result": 81.4, "unit": "ppm"}, {"measurement": "Peroxide (ppm)", "setting": "[3]; [10]", "result": 7.3, "unit": "ppm"}, {"measurement": "PA (ppm)", "setting": "[3]; [11]", "result": 81.0, "unit": "ppm"}, {"measurement": "Peroxide (ppm)", "setting": "[3]; [11]", "result": 7.3, "unit": "ppm"}, {"measurement": "PA (ppm)", "setting": "[3]; [12]", "result": 80.5, "unit": "ppm"}, {"measurement": "Peroxide (ppm)", "setting": "[3]; [12]", "result": 7.1, "unit": "ppm"}, {"measurement": "PA (ppm)", "setting": "[3]; [13]", "result": 79.6, "unit": "ppm"}, {"measurement": "Peroxide (ppm)", "setting": "[3]; [13]", "result": 6.9, "unit": "ppm"}, {"measurement": "PA (ppm)", "setting": "[3]; [14]", "result": 78.7, "unit": "ppm"}, {"measurement": "Peroxide (ppm)", "setting": "[3]; [14]", "result": 6.9, "unit": "ppm"}, {"measurement": "PA (ppm)", "setting": "[3]; [15]", "result": 78.4, "unit": "ppm"}, {"measurement": "Peroxide (ppm)", "setting": "[3]; [15]", "result": 6.9, "unit": "ppm"}, {"measurement": "PA (ppm)", "setting": "[3]; [16]", "result": 77.7, "unit": "ppm"}, {"measurement": "Peroxide (ppm)", "setting": "[3]; [16]", "result": 6.4, "unit": "ppm"}, {"measurement": "PA (ppm)", "setting": "[3]; [17]", "result": 76.1, "unit": "ppm"}, {"measurement": "Peroxide (ppm)", "setting": "[3]; [17]", "result": 6.4, "unit": "ppm"}, {"measurement": "PA (ppm)", "setting": "[3]; [18]", "result": 75.4, "unit": "ppm"}, {"measurement": "Peroxide (ppm)", "setting": "[3]; [18]", "result": 6.1, "unit": "ppm"}, {"measurement": "PA (ppm)", "setting": "[3]; [19]", "result": 74.7, "unit": "ppm"}, {"measurement": "Peroxide (ppm)", "setting": "[3]; [19]", "result": 6.0, "unit": "ppm"}, {"measurement": "PA (ppm)", "setting": "[3]; [20]", "result": 73.7, "unit": "ppm"}, {"measurement": "Peroxide (ppm)", "setting": "[3]; [20]", "result": 6.0, "unit": "ppm"}, {"measurement": "PA (ppm)", "setting": "[3]; [21]", "result": 73.1, "unit": "ppm"}, {"measurement": "Peroxide (ppm)", "setting": "[3]; [21]", "result": 6.0, "unit": "ppm"}]}
